Results reported in patent US9550792B2, “Polycyclic substituted pyrazole kinase activity inhibitors and use thereof” (priority 2013, dated 2017).

Experiments:
[1] = Measurement of water solubility; type: physicochemical; details: thermodynamic from solid, distilled water, 25° C.
Protocol: An excess quantity of sample was added into a 50 mL triangular flask, to which 10 mL distilled water was added, and then the flask was vibrated in a Constant Temperature Vibrator at 25° C. for 72 h. The solution was centrifuged at 10000 r/min for 15 min and then the supernatant was filtrated with […] microfiltration membrane to remove undissolved drug. 2 mL filtrate was metered with methanol to 10 ml. The content of drug was determined with 20 μL sample injection.

[2] = Measurement of lipid-water partition coefficient (Log P); type: physicochemical; details: n-octanol/distilled water, 25° C.
Protocol: n-octanol and distilled water were allowed to saturate each other for 24 h. An amount of the sample was weighed accurately into a 50 mL volumetric flask and metered with n-octanol that was saturated with water (the sample was dissolved completely). A 10 mL solution of the sample in n-octanol was placed in a 50 mL triangular flask, to which was added 10 mL distilled water which was saturated with n-octanol. The mixture was equilibrated (125 rpm, 72 h) at 25° C. with a constant temperature vibrator. The lipid-water partition coefficient was calculated by the concentrations of the drug in the n-octanol stock solution before the experiment and in the n-octanol layer after experiment.

[3] = test system: liver cancer cell line 7721; experiment: Anti-tumor activity in vitro, MTT method; type: cell-based; details: 48 h, read-out: 7721 (IC50/μM)
lung cancer cell H1299 = experiment: Anti-tumor activity in vitro, MTT method; type: cell-based; details: Homo sapiens, NCI-H1299, 48 h, read-out: H1299 (IC50/μM)
S180 grafting tumor = experiment: Inhibition to S180 grafting tumor in animal; type: in vivo, ICR mouse; details: for Body weight After administration / Tumor inhibition / Tumor weight: 7 administrations; for Tumor inhibition / Tumor weight: d8
Protocol: ICR mouse was inoculated with solid tumor according to tumor grafting process (tumor piece was weighed under sterile condition, homogenized with glass tissue homogenizer, placed within a sterile container, to which was added physiological saline to prepare 1:3 cell suspension. The container was placed on ice and aspirated and the cells were mixed homogeneously before each aspiration. Each mouse was inoculated subcutaneously 0.2 mL at right fore axilla). […] The mice were administered intravenously, once a day and 7 administrations in total. The administration volume was 0.4 ml/20 g. The mice bearing tumor were sacrificed 8 days after inoculation (d8). The tumor tissue was separated and weighed. The data was analyzed with statistics method (t-test).
Dose setting: 5 groups in total.

[4] = test system: breast cancer cell line MDA231; experiment: Anti-tumor activity in vitro, MTT method; details: Homo sapiens, MDA-MB-231, 48 h, read-out: MDA231 (IC50/μM)
Protocol: (§1) MTT method: the dehydrogenase associated with NADP in the mitochondria of living cell is capable of reducing exogenous MTT into insoluble bluish violet crystal (Formazan), which is precipitated in the cell. […] DMSO or Triple liquid (10% SDS-5% isobutanol-0.01 mol/L HCl) is used to dissolve the crystal in the cell. The OD determined at 570 nm by a microplate reader can reflect the amount of the living cell indirectly.
(§2) The crystal is dissolved with DMSO and the detection is performed on a microplate reader.

[5] = test system: stomach cancer cell line MGC803; experiment: Anti-tumor activity in vitro, MTT method; details: Homo sapiens, MGC-803, 48 h, read-out: MGC803 (IC50/μM)
Protocol: as §1, §2

[6] = test system: stomach cancer cell line BSG823; experiment: Anti-tumor activity in vitro, MTT method; details: 48 h, read-out: BSG823 (IC50/μM)
Protocol: as §1, §2

leukemia cell line K562 = experiment: Anti-tumor activity in vitro, MTT method; details: Homo sapiens, K562, 48 h, read-out: K562 (IC50/μM)
Protocol: as §1, §2

[7] = test system: breast cancer cell line MCF-7; experiment: Anti-tumor activity in vitro, MTT method; details: Homo sapiens, MCF7, 48 h, read-out: MCF7 (IC50/μM)
Protocol: as §1, §2

[8] = test system: resistant breast cancer cell line MCF-7; experiment: Anti-tumor activity in vitro, MTT method; details: Homo sapiens, MCF7, 48 h, read-out: Resistant MCF7 (IC50/μM)
Protocol: as §1, §2

leukemia cell line NB4 = experiment: Anti-tumor activity in vitro, MTT method; details: 48 h, read-out: NB4 (IC50/μM)
Protocol: as §1, §2

[9] = test system: liver cancer cell line HEPG2; experiment: Anti-tumor activity in vitro, MTT method; details: Homo sapiens, HepG2, 48 h, read-out: HEPG2 (IC50/μM)
Protocol: as §1, §2

[10] = test system: umbilical cord vein endothelium cell line HUVEC; experiment: Anti-tumor activity in vitro, MTT method; details: Homo sapiens, 48 h, read-out: HUVEC (IC50/μM)
Protocol: as §1, §2

[11] = test system: lung cancer cell line A549; experiment: Anti-tumor activity in vitro, MTT method; details: Homo sapiens, A549, 48 h, read-out: A549 (IC50/μM)
Protocol: as §1, §2

[12] = 7.5 mg/kg intravenously once a day
[13] = 15 mg/kg intravenously once a day
[14] = 30 mg/kg intravenously once a day

Compound: O=C(Nc1ccc(CN2CCOCC2)cc1)c1n[nH]cc1Nc1ncnc2sccc12 [Compound I-2, 4-(4-thieno[2,3-d]pyrimidinylamino)-N-(4-((4-morpholinyl)methyl)phenyl)-1H-3-pyrazolecarboxamide]
- solubility at 72 h [1]: < 0.08 µg/mL
- logP at 72 h [2]: 1.28

Compound: CN1CCN(Cc2ccc(NC(=O)c3n[nH]cc3Nc3ncnc4occc34)cc2)CC1 [Compound I-21, 4-(4-furo[2,3-d]pyrimidinylamino)-N-(4-((4-methyl-1-piperazinyl)methyl)phenyl)-1H-3-pyrazolecarboxamide]
- IC50 [3]: 17.4 µM
- IC50 (lung cancer cell H1299): 7.66 µM

Compound: CN1CCN(Cc2ccc(NC(=O)c3n[nH]cc3Nc3ncnc4sccc34)cc2)CC1 [Compound I-1, 4-(4-thieno[2,3-d]pyrimidinylamino)-N-(4-((4-methyl-1-piperazinyl)methyl)phenyl)-1H-3-pyrazole carboxamide]
- IC50 [3]: 6.23 µM
- IC50 (lung cancer cell H1299): 3.3 µM
- solubility at 72 h [1]: < 0.1 µg/mL
- logP at 72 h [2]: 1.27
- Body weight After administration (S180 grafting tumor; [12]): 24.00 ± 0.75 g
- Tumor inhibition (S180 grafting tumor; [12]): 36.94%
- Tumor weight (S180 grafting tumor; [12]): 0.74 ± 0.19 g
- effect on S180 tumor growth compared to the model control group (in words) (S180 grafting tumor; 7.5 mg/kg, P<0.05): significant inhibitory effect
- Body weight After administration (S180 grafting tumor; [13]): 20.00 ± 1.94 g
- Tumor inhibition (S180 grafting tumor; [13]): 45.2%
- Tumor weight (S180 grafting tumor; [13]): 0.63 ± 0.11 g
- effect on S180 tumor growth compared to the model control group (in words) (S180 grafting tumor; 30 mg/kg and 15 mg/kg, P<0.01): very significant inhibitory effect
- effect on the body weight of experimental animals (in words) (S180 grafting tumor; 30 mg/kg and 15 mg/kg, P<0.05): significant inhibitory effect on the body weight
- Body weight After administration (S180 grafting tumor; [14]): 20.43 ± 3.20 g
- Tumor inhibition (S180 grafting tumor; [14]): 55.5%
- Tumor weight (S180 grafting tumor; [14]): 0.52 ± 0.25 g
- IC50 [4]: 5.45 µM
- IC50 [5]: 2.27 µM
- IC50 [6]: 20.7 µM
- IC50 (leukemia cell line K562): 3.2 µM
- IC50 [7]: 0.42 µM
- IC50 [8]: 3.73 µM
- IC50 (leukemia cell line NB4): 0.74 µM
- IC50 [9]: 25.2 µM
- IC50 [10]: 2.54 µM
- IC50 [11]: 50.3 µM
